Measurements taken from patent US11191790B2, “Biologically pure Faecalibacterium butyricigenerans strain, composition including the same and method for treating ulcerative colitis” (BGI SHENZHEN, priority 2016, dated 2021).

Tested on: UC modeled mice (DSS-induced ulcerative colitis)
Assay: In vivo experiment in DSS-induced UC modeled mice
Parameters: species or system C57bl/6 mice
Protocol: With administration of AF52-21, saline or a positive drug, the therapeutic effect of Faecalibacterium butyricigenerans AF52-21 on the UC modeled mice was evaluated by observing body weight, mortality, fecal traits, occult/visual blood in stool, colon length, disease and activity index (DAI) and pathological parameters.
8 week-old C57bl/6 mice weighted 21 g±1 g in SPF grade were adaptively fed for one week. Then, 2% sodium dextran sulfate (DSS) was administered to the mice for 7 days to induce the UC modeled mice.
A total of 48 mice were randomly divided into four groups, with 12 mice in each group. The groups were as follows:
Group I: control group—normal mice without DSS induction;
Group II: UC modeled group—saline gavage after DSS induction;
Group III: UC treatment group—AF52-21 treatment after DSS induction;
Group IV: UC treatment group—positive drug (salicylazosulfapyridine, SASP) treatment after DSS induction.
UC modeled group: gavage with saline (0.85% NaCl).
AF52-21-treated group: administration with cultured AF52-21 in a stationary phase in a bacterial concentration of about 10^8 cfu/ml.
SASP-treated group: administration with 0.02 g/mL of aqueous SASP solution.
The mice in all groups were daily observed for food intake, spontaneous activities, body weight, fecal traits and occult/visual blood in stool. After DSS induction for 7 days, mice were treated according to the administration scheme in 4.3 for 2 weeks by daily gavage of 200 μL/mouse. After 14 days, mice in all groups were sacrificed for blood collection, colon collection for photographing and length-measuring, and collection of other organs for weighing. The colon was then stored in paraformaldehyde in a […] refrigerator.
The mice were given individual scores according to body weight, fecal traits and occult/visual blood in stool. The scoring criteria are as follows (Table 4).
The DAI is scored as the sum of the scores for body weight, fecal traits and occult blood/visual blood in stool.

[1] = daily gavage 200 μL/mouse, AF52-21 about 10^8 cfu/ml, SASP 0.02 g/mL
[2] = ratio of organ weight to body weight, x ± SD, after 14 days of treatment
[3] = sum of scores for body weight, fecal traits, occult/visual blood in stool, daily gavage 200 μL/mouse

O=C(O)c1cc(/N=N/c2ccc(S(=O)(=O)Nc3ccccn3)cc2)ccc1O [SASP, salicylazosulfapyridine]
Mice died during the entire experiment (12 mice in each group, 5 mice died in the UC modeled group): 2 mice | Body weight, DSS induction at Day 7 (UC modeled mice, after 7 days 2% DSS, before treatment): 28.52 ± 3.12 g | Body weight, DSS induction at Day 0 (UC modeled mice, before DSS induction and before treatment (baseline of the group)): 30.12 ± 2.25 g | colon length (after 14 days of treatment, UC modeled group 6.11 ± 0.90): 6.54 ± 0.71 | Body weight, Treatment at Day 1 [1]: 26.51 ± 3.31 g | Body weight, Treatment at Day 7 [1]: 27.60 ± 3.46 g | Body weight, Treatment at Day 14 [1]: 29.98 ± 3.32 g | Weight gain/decrease rate (decrease rate of body weight, UC modeled group 8 ± 0.8% decrease): 0.4 ± 0.2% (decrease rate) | Colon histopathology (histological sections of mouse intestinal mucosa, FIG. 5, compared with the UC modeled group): reduced thickness of colon wall; and reduced number of inflammatory cells infiltrating in submucosa | Colon index [2]: 9.88 ± 2.76 mg/g | Kidney index [2]: 13.24 ± 1.74 mg/g | Liver index [2]: 41.56 ± 6.04 mg/g | Spleen index [2]: 6.24 ± 3.71 mg/g | Thymus index [2]: 1.10 ± 0.39 mg/g | DAI score, DSS induction for 7 days (sum of scores for body weight, fecal traits, occult/visual blood in stool, before treatment): 7.70 ± 2.85 | DAI score, Treatment for 7 days [3]: 5.89 ± 2.21 | DAI score, Treatment for 14 days [3]: 3.98 ± 1.38
